{"source": "paper PMC12717099", "about": "“Peptidoglycan recruitment by a penicillin binding protein” (Nature Communications, 2025)", "key": {"[1]": {"system": "E. faecium D344SRF pCWR624Δpbp5_pbp5_V5", "experiment": "MIC by broth microdilution, pbp5_V5", "format": "cell-based, Enterococcus faecium", "conditions": "strain pbp5_V5 (Q396A_E397A); 37 °C, 20 h; n=3", "protocol": "(§1) The synthetic genes were purchased from GeneWiz (South Plainfield, NJ). The ribosome binding site sequence AGGAGG (Shine-Dalgarno), and a string of five A’s followed by the sequence […], that corresponds to the first 15 bp found in pbp5 from E. faecium C68 were added upstream of the START codon. The terminator sequence […] was added downstream of the STOP codon. BamHI restriction sites were added to the flanking 5′ and 3′ ends. The synthetic genes were inserted into the vector pCWR624Δpbp5. This vector was derived from pCWR624[10], in which the pbp5 gene from D366 was excised by digestion with BamHI followed by re-ligation of the vector, allowing subsequent insertion of modified synthetic pbp5s into the BamHI site downstream of ftsWEfm and psr from E. faecium C68[10]. The synthetic genes were inserted in a BamHI site located downstream of psr. The proper orientation was confirmed by PCR amplification using the forward primer OR_pbp5_FOR_1 (5′-[…]-3′) and the reverse primer OR_pbp5_REV_1 (5′-[…]-3′). Plasmids were sequence verified for the specific binding site mutations. The resulting constructions were electroporated into the natural pbp5(-) mutant E. faecium D344SRF with a selection on brain heart infusion agar (BHI) plates containing kanamycin (1500 µg/ml).\n(§2) E. faecium strains were streaked fresh from −80 °C stored glycerol stocks onto brain heart infusion (BHI) agar plates and incubated for 18 h at 37 °C. Strains harboring the plasmid derivatives were grown under antibiotic pressure on agar plates containing kanamycin at 1500 µg/ml. A single colony was inoculated into BHI or BHI-kanamycin (1500 µg/ml) for overnight cultures (18 h).\n(§3) MIC determination was performed using a standard broth microdilution technique in duplicate from independent cultures. Overnight cultures were inoculated into 3 ml of BHI or BHI-kanamycin (1500 µg/ml) broth in a dilution of 1:100 and incubated until an OD600 of ~0.5 was reached. Cultures were diluted 1:1000 and inoculated into the 96-well plates with the corresponding antibiotics to be tested. Plates were incubated at 37 °C for 20 h and read by eye. […]"}, "[2]": {"system": "E. faecium D344SRF pCWR624Δpbp5_pbp5_V6", "experiment": "Disk diffusion assay, pbp5_V6", "format": "cell-based, Enterococcus faecium", "conditions": "strain pbp5_V6 (E284A_E291A_S294A_N295A); 37 °C, 24 h; n=3", "protocol": "as §1, §2\n(§4) Antibiotic disks used were manufactured by BD BBL^TM. Disk diffusion assays were performed according to the Clinical and Laboratory Standards Institute (CLSI) guidance. Overnight cultures were inoculated into 3 ml of BHI or BHI-kanamycin (1500 µg/ml) broth with a dilution of 1:100 and incubated until an OD600 of ~0.5 was reached. […] The plates were incubated at 37 °C and the zones of inhibition were measured after 24 h. […]"}, "[3]": {"system": "E. faecium D344SRF pCWR624Δpbp5_pbp5_V2", "experiment": "Disk diffusion assay, pbp5_V2", "format": "cell-based, Enterococcus faecium", "conditions": "strain pbp5_V2 (N523A_Q627A); 37 °C, 24 h; n=3", "protocol": "as §1, §2, §4"}, "[4]": {"system": "E. faecium D344SRF pCWR624Δpbp5_pbp5_V1", "experiment": "Disk diffusion assay, pbp5_V1", "format": "cell-based, Enterococcus faecium", "conditions": "strain pbp5_V1 (N523A); 37 °C, 24 h; n=3", "protocol": "as §1, §2, §4"}, "[5]": {"system": "E. faecium D344SRF pCWR624Δpbp5_pbp5_V3", "experiment": "MIC by broth microdilution, pbp5_V3", "format": "cell-based, Enterococcus faecium", "conditions": "strain pbp5_V3 (loop 625-631); 37 °C, 20 h; n=3", "protocol": "as §1, §2, §3"}, "[6]": {"system": "E. faecium D344SRF pCWR624Δpbp5 (empty plasmid)", "experiment": "Disk diffusion assay, pCWR624Δpbp5", "format": "cell-based, Enterococcus faecium", "conditions": "strain pCWR624Δpbp5; 37 °C, 24 h; n=3", "protocol": "as §1, §2, §4"}, "[7]": {"system": "E. faecium D344SRF pCWR624Δpbp5_pbp5_V3", "experiment": "Disk diffusion assay, pbp5_V3", "format": "cell-based, Enterococcus faecium", "conditions": "strain pbp5_V3 (loop 625-631); 37 °C, 24 h; n=3", "protocol": "as §1, §2, §4"}, "[8]": {"system": "E. faecium D344SRF pCWR624Δpbp5_pbp5_V4", "experiment": "MIC by broth microdilution, pbp5_V4", "format": "cell-based, Enterococcus faecium", "conditions": "strain pbp5_V4 (D530A_L533A_W457A); 37 °C, 20 h; n=3", "protocol": "as §1, with “The resulting constructions were electroporated into the natural pbp5(-) mutant E. faecium D344SRF with a selection on brain heart infusion agar (BHI) plates containing kanamycin (1500 µg/ml).” left out\nMIC determination was performed using a standard broth microdilution technique in duplicate from independent cultures. […] Plates were incubated at 37 °C for 20 h and read by eye. […]"}, "[9]": {"system": "E. faecium D344SRF pCWR624Δpbp5_pbp5_V1", "experiment": "MIC by broth microdilution, pbp5_V1", "format": "cell-based, Enterococcus faecium", "conditions": "strain pbp5_V1 (N523A); 37 °C, 20 h; n=3", "protocol": "as §1, §2, §3"}, "[10]": {"system": "PBP5:ceftaroline complex (1:8)", "experiment": "NMR CSP titration of SP2 into ceftaroline-saturated PBP5", "format": "binding, Enterococcus faecium", "conditions": "PBP5:ceftaroline 1:8", "protocol": "Data was processed using Topspin 4.1.4 (Bruker) and analyzed using NMRFAM-SPARKY 1.3 and Poky (build number 20240829)[20],[21]. The sequence-specific backbone assignment of PBP5 is publicly available at BMRBID 51690.\nSPs (SP1 to SP7) were titrated into 0.5 mM (^2H,^15N)-labeled and 0.1 mM (^2H,^15N)/^13C ILV labeled PBP5 at molar ratios of 0:1, 5:1, 10:1, 20:1, 40:1, 60:1, and 80:1 (stem peptide/SP:PBP5; molar ratios). 2D [^1H,^15N] TROSY or 2D [^1H,^13C] HMQC spectra were recorded for each titration point. SPs were solubilized in NMR buffer. Chemical shift perturbations (Δδ) between PBP5 and SP bound PBP5 spectra were calculated using Eq. 1,1 Δδppm=ΔδH^2+ΔδX/Y^2 where, X is ^15N or ^13C and Y is the constant i.e., 10 for ^15N and 4 for ^13C.\nResidues with significant CSPs were identified by calculating the standard deviation of all CSPs (σ), then excluding any CSPs larger than average+2σ, recalculating σ as a new corrected σ0, and then repetitively removing CSPs above 2σ0 until no additional CSPs can be removed. CSPs above ≥2σ2 was the statistical threshold for ^1H/^15N backbone CSP analysis and ≥2xσ1 for ^1H/^13C methyl ILV data for the interaction of SP1 with PBP5. The same threshold values were used for all other peptides to allow for direct comparison with the SP1/PBP5 interaction. […]"}}}
{"compound": "CO/N=C(\\C(=O)N[C@@H]1C(=O)N2C(C(=O)O)=C(CSc3nc(=O)c(=O)[nH]n3C)CS[C@H]12)c1csc(N)n1", "note": "[Ceftriaxone, ceftriaxone]", "values": [{"measurement": "MIC (µg/ml) [Range]", "setting": "[1]", "value": "> 3200 [>3200] µg/ml"}, {"measurement": "Zone Size (mm) [Range]", "setting": "[2]", "value": "0 [0] mm"}, {"measurement": "Zone Size (mm) [Range]", "setting": "[3]", "value": "24 [24-26] mm"}, {"measurement": "Zone Size (mm) [Range]", "setting": "[4]", "value": "0 [0] mm"}, {"measurement": "MIC (µg/ml) [Range]", "setting": "[5]", "value": "25 [25] µg/ml"}, {"measurement": "Zone Size (mm) [Range]", "setting": "[6]", "value": "24 [22-28] mm"}, {"measurement": "Zone Size (mm) [Range]", "setting": "[7]", "value": "28 [26-28] mm"}, {"measurement": "MIC (µg/ml) [Range]", "setting": "[8]", "value": "25 [25-50] µg/ml"}, {"measurement": "MIC (µg/ml) [Range]", "setting": "[9]", "value": "3200 [1600-3200] µg/ml"}]}
{"compound": "D-Lac-L-Ala-D-iGln-L-Lys(D-iAsn) [SP2]", "values": [{"measurement": "CSPs with ceftaroline-saturated PBP5 vs β-lactam free and PenG-saturated PBP5, in words", "setting": "[10]", "value": "virtually identical"}]}
